The term EC50 denotes the midpoint of the concentration-response curve.

For 22 compounds, EC50 results are on record in patent publication EP0560274B1, “Antiherpes peptide derivatives having a ureido N-terminus” (priority 1992, dated 1993).

Like-named read-outs stand apart in the source and are kept apart here. *1 amine or outer side, *2 acyl side, *3 side chain or, on linkers, in order; H or OH if unused. Where a SMILES comes first, the peptide text is derived from it. [ ]: non-standard residue; d: D form. The star is where a group is joined. Gly(1-adamantyl) = N[C@H](C(=O)O)C12CC3CC(CC(C3)C1)C2; Asp(3,3-(CH2)4) = N[C@H](C(=O)O)C1(C(=O)O)CCCC1; tBuAla = CC(C)(C)C[C@H](N)C(=O)O; Tle = CC(C)(C)[C@H](N)C(=O)O; NH(3-pentyl) = CCC(CC)N*; Pyrrolidide = C1CCN(*)C1; X2 = CC(C)(C)CC(C)(C)N*; CO = O=C([*:1])[*:2]; X1 = CCCC1(N*)CCCC1; X4 = CCCC(CCC)N*

The experiment concerns Herpes Simplex Virus (HSV-2). In kind it is cell-based. The protocol:
BHK-21/C13 cells (ATCC CCL 10) are incubated for two days in 150 cm^2 T-flasks (1.5 x 10^6 cells/flask) with alpha-MEM medium (Gibco Canada Inc., Burlington, Ontario, Canada) supplemented with 8% (v/v) fetal bovine serum (FBS, Gibco Canada Inc.). The cells are trypsinized and then transferred to fresh media in a 24 well plate to give 2.5 x 10^5 cells in 750 µL of media per well. The cells are incubated at 37° for a period of 6 h to allow them to adhere to the plate. Thereafter, the cells are washed once with 500 µL of alpha-MEM supplemented with 0.5% (v/v) FBS and then incubated with 750 µL of the same media (low serum) for 3 days. After this period of serum starvation, the low serum medium is removed and the cells are incubated in 500 µL of BBMT for 2 to 3 hours. {BBMT medium is described by P. Brazeau et al., Proc. Natl. Acad. Sci. USA, 79, 7909 (1982).} Thereafter, the cells are infected with HSV-2 (multiplicity of infection = 0.02 PFU/cell) in 100 µL of BBMT medium. (Note: The HSV-2 used was strain HG-52, see Y. Langelier and G. Buttin, J. Gen. Virol., 57, 21 (1981); the virus was stored at -80°.) Following 1 h of virus adsorption at 37°, the media is removed and the cells are washed with BBMT (3 X 250 µL). The cells in each well are incubated with or without (control) appropriate concentrations of the test agent dissolved in 200 µL of BBMT medium. After 29 h of incubation at 37°, the infected cells are harvested by first freezing the plate at -80°, followed by thawing. The cells in each well are scraped off the surface of the well with the help of the melting ice fragments. After complete thawing, the cell suspensions are collected and each well is rinsed with 150 µL of BBMT medium. The viral sample (suspension plus washing) is sonicated gently for 4 min at 4°. Cell debris are removed by centrifugation (1000 times gravity for 10 minutes at 4°). The supernatant is collected and stored at -80° until determination of viral titer.
Viral titration was performed by a modification of the colorimetric assay method of M. Langlois et al., Journal of Biological Standardization, 14, 201 (1986).
More specifically, in a similar manner as described above, BHK-21/C13 cells are trypsinized and transferred to fresh media in a 96 well microtiter plate to give 20,000 cells in 100 µL of media per well. The cells in the prepared plate are incubated at 37° for, 2 h. During that time, the viral sample is thawed and sonicated gently for 15 seconds, and log dilutions of the sample are prepared (1/5 sequential: 50 µL of the sample plus 200 µL of BBMT medium, sequential dilutions being done with a multichannel pipette.
On completion of the above 2 hour incubation of the BHK-21/C13 cells, the media is replaced with alpha-MEM medium supplemented with 3% (v/v) FBS. The cells are now ready to be infected with the various sample dilutions of virus. Aliquots (50 µL) of the various dilutions are transferred into the appropriate wells of the plate. The resulting infected cells are incubated for 2 days at 37°. Then 50 µL of a 0.15% (v/v) solution of neutral red dye in Hank's Balanced Salt Solution (pH 7.3, Gibco Canada Inc.) is added to each well. The prepared plate is incubated for 45 min at 37°. Medium from each well is then aspirated and the cells are washed once with 200 µL of Hank's Balanced Salt Solution. After the wash, the dye is released from the cells by the addition of 100 µL of a 1:1 mixture of 0.1 M Sorensen's citrate buffer (pH 4.2) and ethanol. {Sorensen's citrate buffer is prepared as follows: Firstly, a 0.1 M disodium citrate solution is prepared by dissolving citric acid monohydrate (21 g) in 1 N aqueous NaOH (200 mL) and adding sufficient filtered H2O to make 1 L. Secondly, the 0.1 M disodium citrate solution (61.2 mL) is mixed with 0.1 N aqueous HCl (38.8 mL) and the pH of the resulting solution is adjusted to 4.2 if necessary.} The mixture in the wells is subjected to a gentle vortex action to ensure proper mixing.

On to `CCCC1(NC(=O)N[C@H](C(=O)N[C@@H](CC(=O)N2CCCC2)C(=O)N[C@H](C(=O)N[C@@H](CC(C)(C)C)C(=O)OCC)C2(C(=O)O)CCCC2)C(C)(C)C)CCCC1` [(1-propylcyclopentyl)-NHC(O)-Tbg-Asp(pyrrolidino)-Asp(cyPn)-γMeLeu-OEt] ({X1-CO}-[Tle]D(Pyrrolidide)[Asp(3,3-(CH2)4)][tBuAla]-OEt), for which the midpoint of the response (29 h), the EC50, lay at 45 µM.

Compound `CCCC1(NC(=O)N[C@H](C(=O)N[C@@H](CC(=O)N2CCCC2)C(=O)N[C@H](C(=O)N[C@@H](CC(C)(C)C)C(=O)O)C2(C(=O)O)CCCC2)C(C)(C)C)CCCC1` [(1-propylcyclopentyl)NHCO-Tbg-Asp-(pyrrolidino)-Asp(cyPn)-γMeLeu-OH] ({X1-CO}-[Tle]D(Pyrrolidide)[Asp(3,3-(CH2)4)][tBuAla]-OH) gave an EC50 (29 h) of 190 µM.

`CCC(CC)NC(=O)N[C@H](C(=O)N[C@@H](CC(=O)N1CCCC1)C(=O)N[C@H](C(=O)N[C@@H](CC(C)(C)C)C(=O)O)C1(C(=O)O)CCCC1)C12CC3CC(CC(C3)C1)C2` [Et2CHNHC(O)-NH-(S)-CH(adamantyl)-C(O)-Asp(pyrrolidino)-Asp(cyPn)-γMeLeu-OH] ({NH(3-pentyl)-CO}-[Gly(1-adamantyl)]D(Pyrrolidide)[Asp(3,3-(CH2)4)][tBuAla]-OH) displayed an EC50 (29 h) of 170 µM.

Compound `CCC(CC)NC(=O)N[C@H](C(=O)N[C@@H](CC(=O)N1CCCC1)C(=O)N[C@H](C(=O)N[C@H](CO)CC(C)(C)C)C1(C(=O)O)CCCC1)C12CC3CC(CC(C3)C1)C2` [Et2CHNHC(O)-NH-(S)-CH(adamantyl)-C(O)-Asp(pyrrolidino)-Asp(cyPn)-γMeLeucinol] yielded an EC50 (29 h) of 170 µM.

Compound `CCC(CC)NC(=O)N[C@H](C(=O)N[C@@H](CC(=O)N1CCCC1)C(=O)N[C@H](C(=O)NCCC(C)(C)C)C1(C(=O)O)CCCC1)C(C)(C)C` [Et2CHNHC(O)-Tbg-Asp(pyrrolidino)-Asp(cyPn)-NHCH2CH2CMe3] showed a 50% effective concentration (EC50) (29 h) of 350 µM.

Where the note is “29 h”, `CCC(CC)NC(=O)N[C@H](C(=O)N[C@@H](CC(=O)N1CCCC1)C(=O)N[C@H](C(=O)NCC(C)(C)C)C1(C(=O)O)CCCC1)C(C)(C)C` [Et2CHNHC(O)-Tbg-Asp(pyrrolidino)-Asp(cyPn)-NHCH2CMe3] showed an EC50 of 270 µM.

In the case of `CCC(CC)NC(=O)N[C@H](C(=O)N[C@@H](CC(=O)N1CCCC1)C(=O)N[C@H](C(=O)N[C@@H](CC(C)(C)C)C(=O)O)C1(C(=O)O)CCCC1)C(C)(C)C` [Et2CHNHC(O)-Tbg-Asp(pyrrolidino)-Asp(cyPn)-γMeLeu-OH] ({NH(3-pentyl)-CO}-[Tle]D(Pyrrolidide)[Asp(3,3-(CH2)4)][tBuAla]-OH), the EC50 (29 h) turned out to be 180 µM.

The compound `CCC(CC)NC(=O)N[C@H](C(=O)N[C@@H](CC(=O)N1CCCC1)C(=O)N[C@H](C(=O)N[C@@H](CC(C)C)C(=O)O)[C@H](C(=O)O)C(C)C)C(C)(C)C` [Et2CHNHC(O)-Tbg-Asp(pyrrolidino)-Asp{(R)-iPr}-Leu-OH] showed a 50% effective concentration (EC50) (29 h) of 300 µM.

In turn, `CCC(CC)NC(=O)N[C@H](C(=O)N[C@@H](CC(=O)N1CCCC1)C(=O)N[C@H](C(=O)N[C@@H](CC(C)(C)C)C(=O)O)[C@H](C(=O)O)C(C)C)C(C)(C)C` [Et2CHNHC(O)-Tbg-Asp(pyrrolidino)-Asp{(R)-iPr}-γMeLeu-OH] had an EC50 (29 h) of 190 µM.

For the setting “29 h”, `CCC(CC)NC(=O)N[C@H](C(=O)N[C@@H](CC(=O)N1CCCC1)C(=O)N[C@H](C(=O)N[C@H](CO)CC(C)(C)C)[C@H](C(=O)O)C(C)C)C(C)(C)C` [Et2CHNHC(O)-Tbg-Asp(pyrrolidino)-Asp{(R)-iPr}-γMeLeucinol] had an EC50 of 140 µM.

`CCC(CC)NC(=O)N[C@H](C(=O)N[C@@H](CC(=O)N1CCCC1)C(=O)N[C@H](C(=O)N[C@H](CO)CC(C)(C)C)C1(C(=O)O)CCCC1)C(C)(C)C` [Et2CHNHCO-Tbg-Asp(pyrrolidino)-Asp(cyPn)-γMeLeucinol]: a half-maximal response (29 h) (EC50) required 170 µM.

For `CCCC(CC)(CCC)NC(=O)N[C@H](C(=O)N[C@@H](CC(=O)N1CCCC1)C(=O)N[C@H](C(=O)N[C@H](CC)C(C)(C)C)C1(C(=O)O)CCCC1)C(C)(C)C` [EtPr2CNHC(O)-Tbg-Asp(pyrrolidino)-Asp(cyPn)NH-(R)-CH(Et)CMe3], a half-maximal effect (29 h) (EC50) was put at 7 µM.

On to `CC(C)NC(=O)N[C@H](C(=O)N[C@@H](CC(=O)N1CCCC1)C(=O)N[C@H](C(=O)N[C@H](CO)CC(C)(C)C)C1(C(=O)O)CCCC1)C(C)(C)C` [Me2CHNHC(O)-Tbg-Asp(pyrrolidino)-Asp(cyPn)-γMeLeucinol], for which the EC50 (29 h) was 700 µM.

`CC(C)(C)C[C@H](NC(=O)[C@@H](NC(=O)[C@H](CC(=O)N1CCCC1)NC(=O)[C@@H](NC(=O)NC(C)(C)CC(C)(C)C)C(C)(C)C)C1(C(=O)O)CCCC1)C(=O)O` [Me3CCH2CMe2NHC(O)-Tbg-Asp(pyrrolidino)-Asp(cyPn)-γMeLeu-OH] ({X2-CO}-[Tle]D(Pyrrolidide)[Asp(3,3-(CH2)4)][tBuAla]-OH): the EC50 (concentration effecting 50% inhibition of virus replication, BHK-21/C13 cells infected with HSV-2 strain HG-52 (0.02 PFU/cell), 29 h incubation, colorimetric (neutral red) viral titration, read-out: EC50) amounted to 110 µM.

Take `CCCC(C)(CCC)NC(=O)N[C@H](C(=O)N[C@@H](CC(=O)N1CCCC1)C(=O)N[C@H](C(=O)NCC(C)(C)C)C1(C(=O)O)CCCC1)C(C)(C)C` [MePr2CNHC(O)-Tbg-Asp(pyrrolidino)-Asp(cyPn)-NHCH2CMe3]: the EC50 (29 h) is 84 µM.

Turning to `CCCC(CCC)NC(=O)N[C@H](C(=O)N[C@@H](CC(=O)N1CCCC1)C(=O)N[C@H](C(=O)N[C@H](CO)CC(C)(C)C)C1(C(=O)O)CCCC1)C(C)(C)C(=O)O` [Pr2CHNHC(O)-Asp(diMe)-Asp(pyrrolidino)-Asp(cyPn)-γMeLeucinol], for the setting “29 h”, the EC50 was 170 µM.

Compound `CCCC(CCC)NC(=O)N[C@H](C(=O)N[C@@H](CC(=O)N1CCCC1)C(=O)N[C@H](C(=O)N[C@H](CO)CC(C)(C)C)C1(C(=O)O)CCCC1)C(C)(C)S` [Pr2CHNHC(O)-NH-(R)-CH{C(CH3)2SH}CO-Asp(pyrrolidino)-Asp(cyPn)-γMeLeucinol] returned an EC50 (29 h) of 290 µM.

For the setting “29 h”, `CCCC(CCC)NC(=O)N[C@H](C(=O)N[C@@H](CC(=O)N1CCCC1)C(=O)N[C@H](C(=O)N[C@H](CO)CC(C)(C)C)C1(C(=O)O)CCCC1)C(C)(C)O` [Pr2CHNHC(O)-NH-(S)-CH{C(CH3)2OH}-C(O)-Asp(pyrrolidino)-Asp(cyPn) γMeLeucinol] showed an EC50 of 210 µM.

With `CCCC(CCC)NC(=O)N[C@H](C(=O)N[C@@H](CC(=O)N1CCCC1)C(=O)N[C@H](C(=O)NCC(C)(C)CC)C1(C(=O)O)CCCC1)C(C)(C)C` [Pr2CHNHC(O)-Tbg-Asp(pyrrolidino)-Asp(cyPn)-NHCH2CMe2Et], the EC50 (29 h) came to 106 µM.

`CCCC(CCC)NC(=O)N[C@H](C(=O)N[C@@H](CC(=O)N1CCCC1)C(=O)N[C@H](C(=O)NCC(C)(C)C)C1(C(=O)O)CCCC1)C(C)(C)C` [Pr2CHNHC(O)-Tbg-Asp(pyrrolidino)-Asp(cyPn)-NHCH2CMe3]: the EC50 (29 h) came out at 150 µM.

As for `CCCC(CCC)NC(=O)N[C@H](C(=O)N[C@@H](CC(=O)N1CCCC1)C(=O)N[C@H](C(=O)N[C@H](C)C(C)(C)C)C1(C(=O)O)CCCC1)C(C)(C)C` [Pr2CHNHC(O)-Tbg-Asp(pyrrolidino)-Asp(cyPn)-NHCH-(R)-CH(Me)CMe3], where the note is “29 h”, the response was half-maximal at 55 µM (EC50).

With `CCCC(CCC)NC(=O)N[C@H](C(=O)N[C@@H](CC(=O)N1CCCC1)C(=O)N[C@H](C(=O)N[C@@H](CC(C)(C)C)C(=O)O)C1(C(=O)O)CCCC1)C(C)(C)C` [Pr2CHNHC(O)-Tbg-Asp(pyrrolidino)-Asp(cyPn)-γMeLeu-OH] ({X4-CO}-[Tle]D(Pyrrolidide)[Asp(3,3-(CH2)4)][tBuAla]-OH), under “29 h”, the EC50 amounted to 80 µM.
